For 23 compounds, EC50 results are on record in ChEMBL document CHEMBL5728596, “Inhibitors of cysteine proteases and methods of use thereof” (2021).

Structures are written as SMILES. Bounds are passed on as bounds.

The assay is described as follows: Evaluation of Antiviral Activity of Compounds Against Human Coronavirus (HCov) 229E and OC43 in the Cytopathic Effect (CPE) Assays: Compounds were assayed using standard methods against multiple coronaviral strains, including HCoV 229E and OC43 strains. […] The antiviral activity of compounds was calculated based on the protection of the virus-induced CPE at each concentration normalized by the virus control.
As to `COc1cccc2[nH]c(C(=O)N[C@@H](CC(C)C)C(=O)NC(C#N)c3cccnc3)cc12` (stereo partly drawn), the half-maximal effective concentration (EC50) (usually the concentration giving half of the maximal effect) was 6 µM.

Regarding `COc1cccc2[nH]c(C(=O)N[C@@H](CC(C)C)C(=O)N[C@@H](C[C@@H]3CCNC3=O)C(C#N)NCC(=O)O)cc12` (stereo partly drawn), the EC50 was below 22 µM.

On to `CCCN1C(=N)C([C@H](C[C@@H]2CCNC2=O)NC(=O)[C@H](CC(C)C)NC(=O)c2cc3c(OC)cccc3[nH]2)OC1=O` (stereo partly drawn), for which the EC50 is above 30 µM.

As for `N#C[C@H](C[C@@H]1CCNC1=O)NC(=O)[C@H](CC1CC1)NC(=O)c1cc2cccc(Cl)c2[nH]1`, the EC50 was below 22 µM.

Regarding `COc1cccc2[nH]c(C(=O)N[C@@H](CC(C)(C)C)C(=O)N[C@H](C#N)C[C@@H]3CCCNC3=O)cc12`, the EC50 is below 22 µM.

Regarding `COc1cccc2[nH]c(C(=O)N[C@@H](CC(C)C)C(=O)N[C@H](/C=C/S(C)(=O)=O)C[C@@H]3CCNC3=O)cc12`, the EC50 was above 30 µM.

For the compound `N#C[C@H](C[C@@H]1CCNC1=O)NC(=O)[C@H](CC1CC1)NC(=O)c1cc2cc(Cl)ccc2[nH]1`, the EC50 is below 22 µM.

`CC(C)C[C@H](NC(=O)c1cc2c(OC(F)F)cccc2[nH]1)C(=O)N[C@H](C#N)C[C@@H]1CCNC1=O`: the EC50 was below 22 µM.

As to `COc1cccc2[nH]c(C(=O)N[C@@H](CC(C)C)C(=O)N[C@H](C#N)C[C@@H]3CCNC3=O)cc12`, the concentration for a half-maximal effect (EC50) is below 22 µM.

With `COc1cccc2[nH]c(C(=O)N[C@@H](CC3CCC3)C(=O)N[C@H](C#N)C[C@@H]3CCNC3=O)cc12`, the half-maximal effective concentration (EC50) is below 22 µM.

With `COc1cccc2[nH]c(C(=O)N[C@@H](CC(C)C)C(=O)N[C@@H](C[C@@H]3CCNC3=O)C(C#N)Nc3ccccc3)cc12` (stereo partly drawn), the EC50 is 6 µM.

Consider `COc1cccc2[nH]c(C(=O)N3C[C@H](OC)C[C@H]3C(=O)N[C@H](C#N)C[C@@H]3CCNC3=O)cc12`, for which the concentration giving a half-maximal response (EC50) is below 22 µM.

Regarding `CCCOc1cccc2[nH]c(C(=O)N[C@@H](CC(C)C)C(=O)N[C@H](C#N)C[C@@H]3CCNC3=O)cc12`, the concentration giving a half-maximal response (EC50) is below 22 µM.

For the compound `CC(C)C[C@H](NC(=O)c1nc2ncccc2[nH]1)C(=O)N[C@H](C#N)C[C@@H]1CCNC1=O`, the EC50 was 6 µM.

For the compound `COc1cccc2[nH]c(C(=O)N3C[C@H](SC)C[C@H]3C(=O)N[C@H](C#N)C[C@@H]3CCNC3=O)cc12`, the EC50 is 6 µM.

As for `COc1cccc2[nH]c(C(=O)N3C[C@@H](C45CC(C4)C5)C[C@H]3C(=O)N[C@H](C#N)C[C@@H]3CCNC3=O)cc12` (single isomer, unassigned), the EC50 is below 22 µM.

With `COc1cccc2[nH]c(C(=O)N[C@@H](CC(C)C)C(=O)N[C@@H](C[C@@H]3CCNC3=O)[C@@H](C#N)N3CCCC3)cc12` (single isomer, unassigned), the half-maximal effective concentration (EC50) was below 22 µM.

For the compound `N#C[C@H](C[C@@H]1CCCNC1=O)NC(=O)C1CC2(CN1C(=O)c1cc3cccc(Cl)c3[nH]1)CC(F)(F)C2` (single isomer, unassigned), the EC50 is below 22 µM.

As for `N#C[C@H](C[C@@H]1CCCNC1=O)NC(=O)[C@@H]1CC2(CCCCC2)CN1C(=O)c1cc2ccc(Cl)cc2[nH]1` (single isomer, unassigned), the EC50 is below 22 µM.

Consider `COc1cccc2[nH]c(C(=O)N[C@@H](CC(C)C)C(=O)N[C@@H](C[C@@H]3CCNC3=O)[C@H](C#N)N3CCCC3)cc12` (single isomer, unassigned), for which the EC50 was below 22 µM.

As for `COc1cccc2[nH]c(C(=O)N[C@@H](CC(C)(F)F)C(=O)N[C@H](C#N)C[C@@H]3CCNC3=O)cc12` (single isomer, unassigned), the EC50 was below 22 µM.

With `COc1cccc2[nH]c(C(=O)N3C[C@H](C45CC(C4)C5)C[C@H]3C(=O)N[C@H](C#N)C[C@@H]3CCNC3=O)cc12` (single isomer, unassigned), the EC50 was below 22 µM.

Consider `N#C[C@H](C[C@@H]1CCCNC1=O)NC(=O)C1CC2(CCCCC2)CN1C(=O)c1cc2cccc(Cl)c2[nH]1` (single isomer, unassigned; isomer 1), for which the EC50 was below 22 µM.
